In paper PMC3741380, “The N-Terminally Truncated µ3 and µ3-Like Opioid Receptors Are Transcribed from a Novel Promoter Upstream of Exon 2 in the Human OPRM1 Gene” (PLoS ONE, 2013):

Target: T1, hMOR-1 (Homo sapiens, UniProt P35372)
T1 construct: gene OPRM1; classical 7TM splice variant, C-terminal GFP fusion kept (pcDNA3-GFP), stably expressed in HEK 293 cells
Experiment: cell-based
Source text: inhibition of forskolin-stimulated cAMP accumulation, [3H]-cAMP competition assay on hMOR-1

T1 sequence (P35372 whole entry, the tested form may be a part, canonical isoform): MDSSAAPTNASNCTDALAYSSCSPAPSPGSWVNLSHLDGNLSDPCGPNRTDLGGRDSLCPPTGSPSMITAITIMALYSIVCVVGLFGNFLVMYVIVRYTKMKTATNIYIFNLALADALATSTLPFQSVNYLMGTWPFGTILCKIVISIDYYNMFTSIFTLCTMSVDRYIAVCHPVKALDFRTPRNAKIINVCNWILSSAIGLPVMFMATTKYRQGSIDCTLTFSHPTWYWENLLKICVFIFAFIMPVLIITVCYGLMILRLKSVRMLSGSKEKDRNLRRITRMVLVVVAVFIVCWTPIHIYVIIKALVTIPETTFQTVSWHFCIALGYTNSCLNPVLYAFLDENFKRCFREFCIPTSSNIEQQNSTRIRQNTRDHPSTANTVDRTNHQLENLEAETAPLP

Structure (SMILES): CN1CC[C@]23c4c5ccc(O)c4O[C@H]2[C@@H](O[C@@H]2O[C@H](C(=O)O)[C@@H](O)[C@H](O)[C@H]2O)C=C[C@H]3[C@H]1C5 [M6G]
- IC50: 27.3 ± 11.2 nM
